Patent publication US20220235343A1, “NOVEL ADP-RIBOSYL CYCLASE AND INHIBITOR THEREOF” (INDUSTRIAL COOPERATION FOUNDATION CHONBUK NATIONAL …, priority 2019, published 2022)

Molecular target: T1, new ADP-ribosyl cyclase (ADPRC) of SEQ ID NO 1 (Mus musculus, UniProt P14094)
T1 construct: FLAG (N); made in house; host or cells: HEK293 cells or MES13 cells (transient transfection)
Test: Inhibition of NAD glycohydrolase (NADase) activity of new ADPRC
Assay type: biochemical
Settings: as compared to the control group; ε-NAD substrate, 37° C. 1 hour; inhibitor concentration not given; FIG. 5
Experimental: In order to investigate the ADP-ribosyl cyclase (ADPRC) activity of SEQ ID NO 1, a FLAG-ADPRC plasmid was prepared by ligating a cDNA sequence encoding ADPRC into a FLAG-CMV-2 vector and the overexpression of new ADPRC was induced by treating HEK293 cells or MES13 cells using a transfection reagent. The overexpressed new ADPRC was lysed with a lysis buffer. 45 μL of the lysed sample was treated with 5 μL of 2 mM ε-NAD (nicotinamide 1,N6-ethenoadenine dinucleotide) and incubated at 37° C. for 1 hour. Then, the enzyme-substrate reaction was stopped by treating with 50 μL of 10% trichloroacetic acid. After centrifuging for 10 minutes and adding 80 μL of the supernatant to 720 μL of 0.1 M sodium phosphate buffer, absorbance was measured at 297 nm (excitation) and 410 nm (emission) with a fluorescence spectrometer.
In order to find an inhibitor which inhibits the activation of new ADP-ribosyl cyclase (ADPRC) of SEQ ID NO 1, 5 μL of each of 4,4′-dihydroxyazobenzene (4-DHAB, TCI (Japan)), 2,2′-dihydroxyazobenzene (2-DAB, Sigma-Aldrich (USA)), 2-(3,4-dihydroxyphenyl)-3,5,7-trihydroxychromen-4-one (Quercetin, Sigma-Aldrich (USA)) and San4825 (synthesized by Kannt A et al. [Kannt A, Sicka K, Kroll K, Kadereit D, Gogelein H. Naunyn. Schmiedebergs. Arch. Pharmacol. 385: 717-727, 2012], China) and 2-(1,3-benzoxazol-2-ylamino)-1-methylquinazoline-4(1H)-one (2-BMQ) and 1,4-dicaffeoylquinic acid (1,4-DCQA, Biopurify (China), hereinafter DCQA), which were newly found through screening, was reacted with 40 μL of new ADPRC in iced water for 15 minutes. Then, reaction was conducted at 37° C. for 1 hour after treating with 5 μL of 2 mM ε-NAD (nicotinamide 1,N6-ethenoadenine dinucleotide). Then, the enzyme-substrate reaction was stopped by treating with 50 μL of 10% trichloroacetic acid. After centrifuging for 10 minutes and adding 80 μL of the supernatant to 720 μL of 0.1 M sodium phosphate buffer, absorbance was measured at 297 nm (excitation) and 410 nm (emission) using a fluorescence spectrometer.

Cn1c(Nc2nc3ccccc3o2)nc(=O)c2ccccc21 [2-BMQ, 2-(1,3-benzoxazol-2-ylamino)-1-methylquinazoline-4(1H)-one]
NAD glycohydrolase (NADase) activity inhibited: 36.49%

Oc1ccc(N=Nc2ccc(O)cc2)cc1 [4-DHAB, 4,4′-dihydroxyazobenzene]
NAD glycohydrolase (NADase) activity inhibited: 42.40%
